According to PMC7915277, “Biochemical and Computational Studies of the Interaction between a Glucosamine Derivative, NAPA, and the IKKα Kinase” (International Journal of Molecular Sciences, 2021):

Molecular target: T1, IKKα (Homo sapiens, UniProt O15111)
T1 construct: gene CHUK; recombinant IKKα (Invitrogen), described as a monomer
T1 sequence (O15111 1-745): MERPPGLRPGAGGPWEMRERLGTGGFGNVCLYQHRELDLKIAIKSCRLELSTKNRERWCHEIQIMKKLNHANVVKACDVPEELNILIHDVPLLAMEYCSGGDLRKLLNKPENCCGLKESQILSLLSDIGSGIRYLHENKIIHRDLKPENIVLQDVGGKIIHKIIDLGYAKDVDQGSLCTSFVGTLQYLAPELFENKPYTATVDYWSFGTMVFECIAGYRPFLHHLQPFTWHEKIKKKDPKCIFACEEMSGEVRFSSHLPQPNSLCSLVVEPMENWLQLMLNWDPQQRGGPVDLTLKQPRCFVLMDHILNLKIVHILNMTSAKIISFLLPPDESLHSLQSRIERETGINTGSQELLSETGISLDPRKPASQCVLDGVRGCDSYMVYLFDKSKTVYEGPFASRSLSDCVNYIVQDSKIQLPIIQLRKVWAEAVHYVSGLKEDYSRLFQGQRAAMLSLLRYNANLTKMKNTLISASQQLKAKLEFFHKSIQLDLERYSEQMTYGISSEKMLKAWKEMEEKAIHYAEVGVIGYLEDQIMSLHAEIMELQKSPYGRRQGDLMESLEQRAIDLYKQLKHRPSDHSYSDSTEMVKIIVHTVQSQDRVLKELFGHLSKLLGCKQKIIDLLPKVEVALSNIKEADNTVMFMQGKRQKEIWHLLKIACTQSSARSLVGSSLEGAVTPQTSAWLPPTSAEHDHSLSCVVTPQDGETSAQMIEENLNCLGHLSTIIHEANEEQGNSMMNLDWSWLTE
Test: in vitro kinase assay with recombinant IKKα and IKKtide, UPLC-MS readout
Type: biochemical

Q: For `CC(=O)N[C@@H](Cc1ccccc1)C(=O)N[C@@H]1[C@@H](O)[C@H](O)[C@@H](CO)O[C@H]1O` [NAPA, 2-(N-Acetyl)-L-phenylalanylamido-2-deoxy-β -D-glucose], which IC50 is on record?
A: 500 ± 86 µM
